According to patent publication US10906904B2, “ADO-resistant cysteamine analogs and uses thereof” (HORIZON ORPHAN LLC, priority 2015, dated 2021):
Read-outs that look alike come from different tables or passages of the source.

Columns and labels:
[1] = tested on: cystinotic human fibroblasts; assay: Cystine depletion assay; format: cell-based; details: for Emax: Homo sapiens, Fibroblast, 1 h; for cystine depletion levels (in words): compared to cysteamine; for Cystine depletion: compound at 50 μM or 100 μM, Tables 1-3
Protocol: The ability of test compounds to deplete cystine from cystinotic human fibroblasts (Coriell) was determined by incubating compounds with cells for 60 min at 37° C., 95% (v/v) air/5% (v/v) CO2 in Minimal Essential Media Eagle. Treated cell samples were subsequently harvested, then homogenized to ensure plasma and lysosomal membrane disruption. Protein was removed by acid precipitation and cystine in the supernatant measured using LC-MS/MS and HILIC chromatography. Protein levels were determined and cystine levels reported as nM per mg/ml protein. Cystine levels after test compound treatment were expressed as a percentage of that of untreated control cells.
Compounds were assayed at a concentration of 50 μM or 100 μM according to the general methods described above.
Cystine depletion levels for the compounds are expressed in Table 4 as a percent relative to the cystine depletion achieved by cysteamine (c.f. cysteamine 100%) at a similar concentration.
Cystine depletion levels for each of the compounds in Table 5 are expressed as a percent relative to the cystine depletion achieved by cysteamine (c.f. cysteamine 100%) at a similar concentration.

[2] = molecular target: T1, human recombinant ADO (Homo sapiens, UniProt Q96SZ5); format: in vitro ADME
T1 sequence (Q96SZ5 1-270): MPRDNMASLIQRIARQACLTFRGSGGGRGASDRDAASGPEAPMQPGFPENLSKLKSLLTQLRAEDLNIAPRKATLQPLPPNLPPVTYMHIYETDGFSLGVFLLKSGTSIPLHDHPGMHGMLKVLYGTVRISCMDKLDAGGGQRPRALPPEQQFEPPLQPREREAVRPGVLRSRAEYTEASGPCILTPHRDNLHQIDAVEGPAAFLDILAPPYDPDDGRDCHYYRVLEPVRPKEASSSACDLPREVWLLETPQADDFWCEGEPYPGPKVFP
Protocol: The rate of ADO metabolism was determined by incubating 15 mM test compound with 60 μg/ml human recombinant ADO and 20 nM MitoXpress® O2-sensitive fluorescent probe (Luxcel) at 37° C. in assay buffer/salt in a sealed assay chamber. The initial rate of fluorescence (excitation λ380 nm and emission λ650 nm) increase was used to measure ADO-dependent oxygen depletion activity. The ability of ADO to metabolize compounds and concomitantly consume oxygen was expressed relative to that of 15 mM cysteamine.

[3] = Cystine reactivity assay; details: 30° C., percentage of 3 mM cysteamine
Protocol: Cystine reactivity was assessed by incubating 3 mM test compound with 100 nM BODIPY® FL L-Cystine (Life Tech.) at 30° C., pH 7.4 in phosphate buffer. […] Compound cystine reactivity was expressed as a percentage of that of 3 mM cysteamine.
Under resting conditions, the inherent fluorescence of BODIPY® FL L-cystine was very low due to the spatial proximity of the two BODIPY molecules causing quenching. Under chemical reaction (disruption of the S—S bond), the spatial distance was increased, the quenching lost, and measured fluorescence increased. Time (minutes) vs. fluorescence (relative fluorescence units—RFU) was plotted and linear regression analysis was performed to generate a slope value corresponding to the reaction rate in RFU/min and an R2 value.

[4] = tested on: St-HdhQ^111/111 cells; assay: Glutamate-induced neuronal excitotoxicity assay; format: cell-based; details: STHdhQ111, 6 mM L-glutamate 24 hours, % of effect of 100 μM cysteamine; for viability at 10 µM: read-out: HdhQ^111/111 cell % survival (mean ± STD) Test Conc. 10 μM; for viability at 100 µM: read-out: HdhQ^111/111 cell % survival (mean ± STD) Test Conc. 100 μM
Protocol: The ability of test compounds to inhibit glutamate-induced excitotoxicity (neuroprotection) in St-HdhQ^111/111 cells was determined by incubating compounds with cells for 60 min at 33° C., 95% (v:v) air/5% (v:v) CO2 in Dulbecco's Modified Eagle Media. Following this, excitotoxicity was induced by the addition of 6 mM L-glutamate for 24 hours. Cell viability was assessed by measuring ATP levels using a luminescent-based CellTitre Glo assay (Promega). Compound neuroprotection (% cell survival) was expressed as a % of the effect recorded with 100 μM cysteamine (denoted as 100% cell survival).

[5] = Table 5, relative to cystine depletion by cysteamine (100%) at a similar concentration, read-out: Cystine Depletion (%) Mean Value
[6] = Table 4, relative to cystine depletion by cysteamine (100%) at a similar concentration, read-out: Cystine Depletion (%)

Work on `CSC1(C)CCNCC1` [Compound 145691] yielded an Emax [1, 5] of 0%.

In the case of `NC1(CS)CC1` [Compound 41448], the “ADO Metabolism Assay (%) Mean Value” ([2]; human, 15 mM) is reported as 25-75% and the Emax [1, 6] is reported as 55%.

For `CN[C@H]1C[C@H](S)C1` [Compound 149609], the “Cystine Reactivity Assay (30° C.) (%) Mean Value” ([3]; Table 5) was less than 50%, the “ADO Metabolism Assay (%) Mean Value” ([2]; human, 15 mM) was less than 25% and the Emax [1, 5] was 50%.

For `CC(C)(N)CS` [Compound 3b], the “cystine depletion levels (in words)” value [1] was “similar” and the Cystine depletion [1] was 97%.

For `SC[C@@H]1CCCCN1` [Compound 145592], the “Cystine Reactivity Assay (30° C.) (%) Mean Value” ([3]; Table 5) was greater than 90%, the Emax [1, 5] was 156% and the viability at 10 µM [4] was 17 ± 10%. The viability at 100 µM [4] was 88 ± 8%.

For `N[C@H]1CC[C@H](S)CC1` [Compound 42492], the “Cystine Reactivity Assay (30° C.) (%) Mean Value” ([3]; Table 4) was less than 50%.

In the case of `CN1CCCC(SSC2CCCN(C)C2)C1` (centres unmarked) [Compound 42152], the Emax [1, 6] is reported as 126%.

With `CC(C)(N)CS` [Compound 42097] the Emax [1, 6] was 97%.

With `NC1(CS)CC1` [Compound 3d] the “metabolism by ADO compared to cysteamine (in words)” value [2] was “significantly reduced metabolism by ADO compared to cysteamine”, the ADO metabolism ([2]; human, 15 mM) was 14% and the “cystine depletion levels (in words)” value [1] was “slightly decreased”. For the same compound, the Cystine depletion [1] was 55%.

In the case of `SC1CC2(CNC2)C1` [Compound 42611], the “Cystine Reactivity Assay (30° C.) (%) Mean Value” ([3]; Table 4) is reported as greater than 90%, the “ADO Metabolism Assay (%) Mean Value” ([2]; human, 15 mM) is reported as less than 25% and the Emax [1, 6] is reported as 55%.

`C[C@H]1CCNC[C@@H]1S` [Compound 42612] showed an Emax [1, 6] of 98%.

For `N[C@@H]1CCCC[C@H]1S` [Compound 42692], the “Cystine Reactivity Assay (30° C.) (%) Mean Value” ([3]; Table 4) was greater than 90%, the Emax [1, 6] was 100% and the viability at 10 µM [4] was 82 ± 4%. The viability at 100 µM [4] was 71 ± 5%.

In the case of `O=c1[nH][se]c2ccccc12` [Compound 145565], the Emax [1, 5] is reported as 31%.

Work on `N[C@H]1C[C@H](SS[C@H]2C[C@H](N)C2)C1` [Compound 151271] yielded an Emax [1, 5] of 27%.

For `NC1CCCC(S)C1` (centres unmarked) [Compound 145693], the “Cystine Reactivity Assay (30° C.) (%) Mean Value” ([3]; Table 5) was 50-90%, the “ADO Metabolism Assay (%) Mean Value” ([2]; human, 15 mM) was less than 25% and the Emax [1, 5] was 81%.

With `CNCCS` [Compound 18781] the “Cystine Depletion (%)” value ([1]; Table 4, relative to cystine depletion by cysteamine (100%) at a similar concentration) was 92%.

With `FC1(F)CCNC[C@@H]1S` [Compound 42694] the “Cystine Reactivity Assay (30° C.) (%) Mean Value” ([3]; Table 4) was less than 50% and the Emax [1, 6] was 20%.

With `SC12CCN(CC1)CC2` [Compound 42389] the “Cystine Reactivity Assay (30° C.) (%) Mean Value” ([3]; Table 4) was 50-90%, the “ADO Metabolism Assay (%) Mean Value” ([2]; human, 15 mM) was less than 25% and the Emax [1, 6] was 36%.

Compound `CN1CC[C@H](SS[C@H]2CCN(C)C2)C1` [Compound 42343] has an Emax [1, 6] of 84%.

For `CN1C2CCC1CC(SSC1CC3CCC(C1)N3C)C2` (centres unmarked) [Compound 42344], the Emax [1, 6] was 38%.

For `Sc1ccncc1` [Compound 42338], the “Cystine Reactivity Assay (30° C.) (%) Mean Value” ([3]; Table 4) was less than 50%.

`C[C@H]1C[C@@H](S)CCN1` [Compound 42618] showed an Emax [1, 6] of 49%.

Compound `CN1CC[C@H](S)C1` has a viability at 10 µM [4] of 11 ± 11% and a viability at 100 µM [4] of 95 ± 6%.

In the case of `NC1CC(O)(CS)C1` (centres unmarked) [Compound 149610], the “Cystine Reactivity Assay (30° C.) (%) Mean Value” ([3]; Table 5) is reported as less than 50%, the “ADO Metabolism Assay (%) Mean Value” ([2]; human, 15 mM) is reported as less than 25% and the Emax [1, 5] is reported as 15%.

In the case of `C[C@@]1(S)CCCNC1` [Compound 151182], the “Cystine Reactivity Assay (30° C.) (%) Mean Value” ([3]; Table 5) is reported as 59-90%, the Emax [1, 5] is reported as 59% and the viability at 10 µM [4] is reported as 1 ± 5%. It also gave a viability at 100 µM [4] of 85 ± 11%.

For `SCC1CNC1` [Compound 145585], the “Cystine Reactivity Assay (30° C.) (%) Mean Value” ([3]; Table 5) was greater than 90%, the Emax [1, 5] was 11% and the viability at 10 µM [4] was 13 ± 10%. For the same compound, the viability at 100 µM [4] was 100 ± 9%.

For `N[C@H]1C[C@@H](SS[C@H]2C[C@@H](N)C2)C1` [Compound 151270], the Emax [1, 5] was 3%.
